Test results reported in publication PMC10035947, “Development of novel anilinoquinazoline-based carboxylic acids as non-classical carbonic anhydrase IX and XII inhibitors” (Journal of Enzyme Inhibition and Medicinal Chemistry, 2023).

Tests used:
hCA I = target: T1, hCA I (Homo sapiens, UniProt P00915); test: stopped flow CO2 hydrase assay; type: biochemical; conditions: mean from 3 assays
T1 construct: made in house
Experimental: (§1) Carbonic anhydrase inhibition assay
(§2) The carbonic anhydrase catalyzed CO2 hydration actions for the quinazoline-based […]
(§3) Photophysics stopped-flow, as described previously. The enzymes are recombinant proteins prepared in our lab. Phenol red (at a concentration of 0.2 mM) has been used as indicator, working at the absorbance maximum of 557 nm, with 20 mM Hepes (pH 7.5) as buffer, and 20 mM Na2SO4 (for maintaining constant the ionic strength), following the initial rates of the CA- […]
(§4) 1.7 to 17 mM for the determination of the kinetic parameters and inhibition constants. For each […]
(§5) initial velocity. The uncatalyzed rates were determined in the same manner and subtracted from the total observed rates. Stock solutions of inhibitor (0.1 mM) were prepared in distilled-deionized water and dilutions up to 0.01 nM were done thereafter with the assay buffer. Inhibitor and enzyme solutions were preincubated together for 15 min at room temperature prior to assay, in order to allow for the formation of the E-I complex. The inhibition constants were obtained by non-linear least-squares methods using PRISM 3 and the Cheng-Prusoff equation, and represent the mean from at least three different determinations.

hCA IX = target: T2, hCA IX (Homo sapiens, UniProt Q16790); test: stopped flow CO2 hydrase assay; type: biochemical; conditions: for Selectivity ratio II/IX: KI hCA II / KI hCA IX; for Ki: mean from 3 assays
T2 construct: made in house
Experimental: as §1, §2, §3, §4, §5

hCA XII = target: T3, hCA XII (Homo sapiens, UniProt O43570); test: stopped flow CO2 hydrase assay; type: biochemical; conditions: for Selectivity ratio I/XII: KI hCA I / KI hCA XII; for Selectivity ratio II/XII: KI hCA II / KI hCA XII; for Ki: mean from 3 assays
T3 construct: made in house
Experimental: as §1, §2, §3, §4, §5

K-562 = test: NCI SRB assay; type: cell-based, human; conditions: for GI%: K-562, 10 μM; for Growth Percent: K-562, 1.00E-5 Molar
RPMI-8226 = test: NCI SRB assay; type: cell-based, human; conditions: for GI%: RPMI-8226, 10 μM; for Growth Percent: RPMI-8226, 1.00E-5 Molar
A549/ATCC = test: NCI SRB assay; type: cell-based, human; conditions: A549/ATCC; for GI%: 10 μM; for Growth Percent: 1.00E-5 Molar
HOP-62 = test: NCI SRB assay; type: cell-based, human; conditions: for GI%: HOP-62, 10 μM; for Growth Percent: HOP-62, 1.00E-5 Molar
NCI-H23 = test: NCI SRB assay; type: cell-based, human; conditions: for GI%: NCI-H23, 10 μM; for Growth Percent: NCI-H23, 1.00E-5 Molar
NCI-H522 = test: NCI SRB assay; type: cell-based, human; conditions: for GI%: NCI-H522, 10 μM; for Growth Percent: NCI-H522, 1.00E-5 Molar
HCC-2998 = test: NCI SRB assay; type: cell-based, human; conditions: for GI%: HCC-2998, 10 μM; for Growth Percent: HCC-2998, 1.00E-5 Molar
HCT-15 = test: NCI SRB assay; type: cell-based, human; conditions: for GI%: HCT-15, 10 μM; for Growth Percent: HCT-15, 1.00E-5 Molar
HT29 = test: NCI SRB assay; type: cell-based, human; conditions: for GI%: HT29, 10 μM; for Growth Percent: HT29, 1.00E-5 Molar
SF-268 = test: NCI SRB assay; type: cell-based, human; conditions: for Growth Percent: SF-268, 1.00E-5 Molar
U251 = test: NCI SRB assay; type: cell-based, human; conditions: for GI%: U251, 10 μM; for Growth Percent: U251, 1.00E-5 Molar
MALME-3M = test: NCI SRB assay; type: cell-based, human; conditions: for GI%: 10 μM; for Growth Percent: 1.00E-5 Molar
M14 = test: NCI SRB assay; type: cell-based, human; conditions: for GI%: M14, 10 μM; for Growth Percent: M14, 1.00E-5 Molar
MDA-MB-435 = test: NCI SRB assay; type: cell-based; conditions: for GI%: MDA-MB-435, 10 μM; for Growth Percent: MDA-MB-435, 1.00E-5 Molar
SK-MEL-28 = test: NCI SRB assay; type: cell-based, human; conditions: for GI%: SK-MEL-28, 10 μM; for Growth Percent: SK-MEL-28, 1.00E-5 Molar
SK-MEL-5 = test: NCI SRB assay; type: cell-based, human; conditions: for GI%: SK-MEL-5, 10 μM; for Growth Percent: SK-MEL-5, 1.00E-5 Molar
IGROV1 = test: NCI SRB assay; type: cell-based, human; conditions: for GI%: IGROV1, 10 μM; for Growth Percent: IGROV1, 1.00E-5 Molar
OVCAR-4 = test: NCI SRB assay; type: cell-based, human; conditions: for GI%: OVCAR-4, 10 μM; for Growth Percent: OVCAR-4, 1.00E-5 Molar
OVCAR-8 = test: NCI SRB assay; type: cell-based, human; conditions: for GI%: OVCAR-8, 10 μM; for Growth Percent: OVCAR-8, 1.00E-5 Molar
786-0 = test: NCI SRB assay; type: cell-based, human; conditions: for GI%: 786-0, 10 μM; for Growth Percent: 786-0, 1.00E-5 Molar
A498 = test: NCI SRB assay; type: cell-based, human; conditions: for GI%: A498, 10 μM; for Growth Percent: A498, 1.00E-5 Molar
MCF7 = test: NCI SRB assay; type: cell-based, human; conditions: for GI%: MCF7, 10 μM; for Growth Percent: MCF7, 1.00E-5 Molar
BT-549 = test: NCI SRB assay; type: cell-based, human; conditions: for GI%: BT-549, 10 μM; for Growth Percent: BT-549, 1.00E-5 Molar
T-47D = test: NCI SRB assay; type: cell-based, human; conditions: for GI%: 10 μM; for Growth Percent: 1.00E-5 Molar

T3 sequence (O43570 25-354): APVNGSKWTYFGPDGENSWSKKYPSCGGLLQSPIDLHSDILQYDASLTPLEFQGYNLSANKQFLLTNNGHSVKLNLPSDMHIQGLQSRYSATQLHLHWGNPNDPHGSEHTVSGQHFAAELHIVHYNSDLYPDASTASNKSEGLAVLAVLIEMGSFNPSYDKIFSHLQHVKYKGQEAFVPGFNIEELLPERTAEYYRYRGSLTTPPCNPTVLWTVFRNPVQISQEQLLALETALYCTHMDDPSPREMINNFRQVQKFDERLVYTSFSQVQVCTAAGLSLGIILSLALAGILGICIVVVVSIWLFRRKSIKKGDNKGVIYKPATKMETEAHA
T1 sequence (P00915 whole entry): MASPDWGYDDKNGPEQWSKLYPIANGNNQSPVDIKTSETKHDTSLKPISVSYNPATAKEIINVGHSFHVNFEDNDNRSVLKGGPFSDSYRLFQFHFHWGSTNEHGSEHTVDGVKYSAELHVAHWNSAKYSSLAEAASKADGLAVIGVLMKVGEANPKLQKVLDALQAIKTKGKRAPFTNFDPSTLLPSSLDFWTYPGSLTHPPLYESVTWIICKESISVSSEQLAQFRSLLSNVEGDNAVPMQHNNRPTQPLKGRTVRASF

`Cc1cccc(-c2nc(Nc3ccccc3C(=O)O)c3ccccc3n2)c1` [6a, 2-((2-(m-Tolyl)quinazolin-4-yl)amino)benzoic acid] was tested, and the Ki (hCA I) was over 100 µM, the “Selectivity ratio I/IX” value (hCA IX; KI hCA I / KI hCA IX) was 2.4 and the “Selectivity ratio II/IX” value (hCA IX) was 2.00. For the same compound, the Ki (hCA IX) was 42.5 µM, the “Selectivity ratio I/XII” value (hCA XII) was 11.1 and the “Selectivity ratio II/XII” value (hCA XII) was 9.47. The Ki (hCA XII) was 9 µM, the GI% (K-562) was 71% and the “Growth Percent” value (K-562) was 28.68%. For the same compound, the GI% (RPMI-8226) was 71%, the “Growth Percent” value (RPMI-8226) was 28.59% and the GI% (A549/ATCC) was 56%. For the same compound, the “Growth Percent” value (A549/ATCC) was 43.63%, the GI% (HOP-62) was 54% and the “Growth Percent” value (HOP-62) was 46.18%. For the same compound, the GI% (NCI-H23) was 79%, the “Growth Percent” value (NCI-H23) was 20.79% and the GI% (NCI-H522) was 40%. The “Growth Percent” value (NCI-H522) was 59.94%, the GI% (HCC-2998) was 73% and the “Growth Percent” value (HCC-2998) was 27.10%. For the same compound, the GI% (HCT-15) was 86%, the “Growth Percent” value (HCT-15) was 14.29% and the GI% (HT29) was 60%. The “Growth Percent” value (HT29) was 39.66%, the “Growth Percent” value (SF-268) was 37.50% and the GI% (U251) was 73%. For the same compound, the “Growth Percent” value (U251) was 26.61%, the GI% (MALME-3M) was 63% and the “Growth Percent” value (MALME-3M) was 37.17%. For the same compound, the GI% (M14) was 75%, the “Growth Percent” value (M14) was 25.25% and the GI% (MDA-MB-435) was 55%. For the same compound, the “Growth Percent” value (MDA-MB-435) was 44.63%, the GI% (SK-MEL-28) was 50% and the “Growth Percent” value (SK-MEL-28) was 49.95%. The GI% (SK-MEL-5) was 94%, the “Growth Percent” value (SK-MEL-5) was 6.01% and the GI% (IGROV1) was 41%. For the same compound, the “Growth Percent” value (IGROV1) was 59.24%, the GI% (OVCAR-4) was 58% and the “Growth Percent” value (OVCAR-4) was 41.88%. For the same compound, the GI% (OVCAR-8) was 40%, the “Growth Percent” value (OVCAR-8) was 60.34% and the GI% (786-0) was 75%. For the same compound, the “Growth Percent” value (786-0) was 25.01%, the GI% (A498) was 52% and the “Growth Percent” value (A498) was 47.56%. For the same compound, the GI% (MCF7) was 76%, the “Growth Percent” value (MCF7) was 23.97% and the GI% (BT-549) was 100%. For the same compound, the “Growth Percent” value (BT-549) was -0.68%, the GI% (T-47D) was 73% and the “Growth Percent” value (T-47D) was 26.79%.
`Cc1ccc(-c2nc(Nc3cccc(C(=O)O)c3)c3ccccc3n2)cc1` [7b, 3-((2-(p-Tolyl)quinazolin-4-yl)amino)benzoic acid] was tested, and the Ki (hCA I) was over 100 µM, the “Selectivity ratio II/IX” value (hCA IX) was 1.72 and the Ki (hCA IX) was 24.2 µM. For the same compound, the “Selectivity ratio I/XII” value (hCA XII) was 109.9, the “Selectivity ratio II/XII” value (hCA XII) was 45.82 and the Ki (hCA XII) was 0.91 µM. The GI% (K-562) was 20%, the “Growth Percent” value (K-562) was 80.06% and the GI% (RPMI-8226) was 29%. The “Growth Percent” value (RPMI-8226) was 70.78%, the GI% (A549/ATCC) was “– (Only GI% higher than 20% are shown)” and the “Growth Percent” value (A549/ATCC) was 90.82%. The GI% (HOP-62) was “– (Only GI% higher than 20% are shown)”, the “Growth Percent” value (HOP-62) was 84.19% and the GI% (NCI-H23) was “– (Only GI% higher than 20% are shown)”. For the same compound, the “Growth Percent” value (NCI-H23) was 95.42%, the GI% (NCI-H522) was “– (Only GI% higher than 20% are shown)” and the “Growth Percent” value (NCI-H522) was 86.87%. The GI% (HCC-2998) was “– (Only GI% higher than 20% are shown)”, the “Growth Percent” value (HCC-2998) was 94.40% and the GI% (HCT-15) was 55%. For the same compound, the “Growth Percent” value (HCT-15) was 45.38%, the GI% (HT29) was “– (Only GI% higher than 20% are shown)” and the “Growth Percent” value (HT29) was 105.90%. For the same compound, the GI% (SF-268; SF-268, 10 μM) was 31%, the “Growth Percent” value (SF-268) was 69.32% and the GI% (U251) was 21%. The “Growth Percent” value (U251) was 78.70%, the GI% (MALME-3M) was “– (Only GI% higher than 20% are shown)” and the “Growth Percent” value (MALME-3M) was 96.44%. For the same compound, the GI% (M14) was “– (Only GI% higher than 20% are shown)”, the “Growth Percent” value (M14) was 83.59% and the GI% (MDA-MB-435) was “– (Only GI% higher than 20% are shown)”. For the same compound, the “Growth Percent” value (MDA-MB-435) was 100.82%, the GI% (SK-MEL-28) was “– (Only GI% higher than 20% are shown)” and the “Growth Percent” value (SK-MEL-28) was 97.02%. The GI% (SK-MEL-5) was “– (Only GI% higher than 20% are shown)”, the “Growth Percent” value (SK-MEL-5) was 85.67% and the GI% (IGROV1) was “– (Only GI% higher than 20% are shown)”. For the same compound, the “Growth Percent” value (IGROV1) was 107.30%, the GI% (OVCAR-4) was 23% and the “Growth Percent” value (OVCAR-4) was 77.91%. For the same compound, the GI% (OVCAR-8) was “– (Only GI% higher than 20% are shown)”, the “Growth Percent” value (OVCAR-8) was 91.56% and the GI% (786-0) was 24%. The “Growth Percent” value (786-0) was 76.25%, the GI% (A498) was “– (Only GI% higher than 20% are shown)” and the “Growth Percent” value (A498) was 95.15%. For the same compound, the GI% (MCF7) was “– (Only GI% higher than 20% are shown)”, the “Growth Percent” value (MCF7) was 85.28% and the GI% (BT-549) was “– (Only GI% higher than 20% are shown)”. For the same compound, the “Growth Percent” value (BT-549) was 101.46%, the GI% (T-47D) was “– (Only GI% higher than 20% are shown)” and the “Growth Percent” value (T-47D) was 83.81%.
